We go through eight molecules from ChEMBL document CHEMBL1221327, “Allicin and derivates are cysteine protease inhibitors with antiparasitic activity” (Bioorg Med Chem Lett, 2010).

Molecules are shown by their SMILES. Calls of active or inactive are those of the source. The rule behind the calls is not given here.

Experiment [1] concerns the target T1, Procathepsin L (Homo sapiens, UniProt P07711). Nature of the experiment: Time dependent inhibition of cathepsin L by Dixon plot analysis.
Target sequence in this assay (P07711 114-333 limits assumed): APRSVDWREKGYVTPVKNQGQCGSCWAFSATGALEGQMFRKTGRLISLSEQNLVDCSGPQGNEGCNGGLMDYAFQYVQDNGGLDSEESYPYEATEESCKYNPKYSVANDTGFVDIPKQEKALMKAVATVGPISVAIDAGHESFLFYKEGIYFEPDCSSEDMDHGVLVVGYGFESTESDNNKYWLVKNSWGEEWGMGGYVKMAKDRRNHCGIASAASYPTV
Experiment [2] relates to Plasmodium falciparum. Nature of the experiment: Time dependent inhibition of Plasmodium falciparum falcipain-2 by Dixon plot analysis.
Experiment [3] relates to Plasmodium falciparum. The experiment is described as follows: Antiparasitic activity against Plasmodium falciparum. Format: functional, organism-based.
Experiment [4] has as its target Rhodesain (Trypanosoma brucei rhodesiense) (UniProt Q95PM0). Nature of the experiment: Time dependent inhibition of Trypanosoma brucei rhodesiense rhodesain by Dixon plot analysis.
Experiment [5] concerns the target T2, Cathepsin B (Homo sapiens, UniProt P07858). The experiment is described as follows: Inhibition of cathepsin B.
The subject of experiment [6] is Trypanosoma brucei brucei. Nature of the experiment: Antiparasitic activity against Trypanosoma brucei brucei. Format: functional, organism-based.
The target in experiment [7] is Rhodesain (Trypanosoma brucei rhodesiense, UniProt Q95PM0). The experiment is described as follows: Inhibition of Trypanosoma brucei rhodesiense rhodesain.
Rhodesain, sequence (Q95PM0 whole entry): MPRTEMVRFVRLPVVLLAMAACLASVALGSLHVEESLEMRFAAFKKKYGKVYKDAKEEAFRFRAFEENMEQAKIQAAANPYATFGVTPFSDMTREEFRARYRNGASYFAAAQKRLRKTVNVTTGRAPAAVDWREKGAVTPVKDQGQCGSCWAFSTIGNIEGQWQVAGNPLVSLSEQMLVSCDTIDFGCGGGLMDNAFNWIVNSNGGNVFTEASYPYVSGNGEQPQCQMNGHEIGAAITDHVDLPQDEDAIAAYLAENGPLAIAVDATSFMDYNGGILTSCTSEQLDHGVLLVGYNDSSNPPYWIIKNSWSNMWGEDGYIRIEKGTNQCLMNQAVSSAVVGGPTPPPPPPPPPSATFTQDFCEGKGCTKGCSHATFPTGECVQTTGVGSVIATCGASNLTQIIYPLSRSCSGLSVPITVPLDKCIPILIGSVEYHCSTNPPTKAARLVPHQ
Experiment [8] is described as follows: Inhibition of Plasmodium falciparum falcipain-2.
Experiment [9] concerns the target T1, Procathepsin L. The experiment is described as follows: Inhibition of cathepsin L.
Target sequence in this assay (P07711 whole entry): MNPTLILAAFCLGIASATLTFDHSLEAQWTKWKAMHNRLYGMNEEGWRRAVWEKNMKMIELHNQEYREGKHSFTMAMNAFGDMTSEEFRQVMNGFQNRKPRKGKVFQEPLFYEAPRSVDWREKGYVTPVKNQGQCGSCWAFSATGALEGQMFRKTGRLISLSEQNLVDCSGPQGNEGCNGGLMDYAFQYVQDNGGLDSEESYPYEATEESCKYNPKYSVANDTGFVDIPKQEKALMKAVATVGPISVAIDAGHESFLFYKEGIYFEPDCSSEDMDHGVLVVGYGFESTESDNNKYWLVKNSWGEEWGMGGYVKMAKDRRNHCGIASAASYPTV
In experiment [10] the test system is Plasmodium falciparum. The experiment is described as follows: Inhibition of Plasmodium falciparum falcipain-2 at 20 uM.
For experiment [11], the target named is Rhodesain (Trypanosoma brucei rhodesiense) (UniProt Q95PM0). Nature of the experiment: Inhibition of Trypanosoma brucei rhodesiense rhodesain at 20 uM.
Rhodesain (Trypanosoma brucei rhodesiense), sequence (Q95PM0 1-450): as the sequence (Q95PM0 whole entry) above
The target in experiment [12] is T1, Procathepsin L. Nature of the experiment: Inhibition of cathepsin L at 20 uM.
Target sequence in this assay (P07711 114-333 limits assumed): as the sequence (P07711 114-333 limits assumed) above
Experiment [13] concerns the target T2, Cathepsin B. The conditions noted are these: 20 uM.
Description: Inhibition of cathepsin B at 20 uM
Experiment [14] deals with T2, Cathepsin B. Nature of the experiment: Inhibition of cathepsin B at 100 uM.
Experiment [15] concerns Plasmodium falciparum. The experiment is described as follows: Inhibition of Plasmodium falciparum falcipain-2 at 100 uM.
Experiment [16] has as its target T1, Procathepsin L. The experiment is described as follows: Inhibition of cathepsin L at 100 uM.
Target sequence in this assay (P07711 114-333 limits assumed): as above

In general, IC50 refers to the concentration needed to halve the response being measured. The term Ki denotes a dissociation constant, usually derived from enzyme kinetics or from competition with a known ligand. A low value points to a stronger hold on the target. Take `CCCS[S+]([O-])CCC` (stereo unspecified): the TDI is 6660 min⁻¹ M⁻¹ in experiment [1], 10800 min⁻¹ M⁻¹ in experiment [2] and 7150 min⁻¹ M⁻¹ in experiment [4]. For the same molecule, the IC50 in experiment [3] is 78.3 µM; in [6], more than 40 µM. Also, the Ki in experiment [5] turned out to be 15.6 µM; in [7] it was 4.44 µM; in experiment [8], 26.4 µM; in experiment [9], 11.3 µM.

Consider `C=CCS[S+]([O-])CC=C` (stereo unspecified) [ALLICIN], for which the IC50 in experiment [3] was 5.21 µM; in [6] it was 13.8 µM. The Ki in experiment [5] worked out at 8.6 µM; in experiment [7], 5.31 µM; in [8] it was 1.04 µM; in experiment [9], 9.3 µM. Further, the inhibition entry in [10], in [11], in [12] and in experiment [13] was “inactive” in each case.

Regarding `[O-][S+](SC1CCCCC1)C1CCCCC1` (stereo unspecified), in [3], the IC50 came to 34.4 µM. In addition, the Ki in [5], in experiment [7], in experiment [8] and in experiment [9] was more than 100 µM in each case.

As to `CC(C)(C)S[S+]([O-])Cc1ccccc1` (stereo unspecified), the inhibition result in experiment [14] and in [15] was “inactive” throughout. The IC50 in experiment [3] was 52.9 µM; in experiment [6], 11.9 µM. Moreover, the inhibitory constant (Ki) in [7] and in experiment [9] was more than 100 µM each time.

With `CC(C)(C)S[S+]([O-])C(C)(C)C` (stereo unspecified), the inhibition entry in experiment [14] and in experiment [16] was “inactive” each time. For the same molecule, the figures for the IC50 in experiment [3] and in experiment [6] were 72.5 µM and more than 40 µM, respectively. For the same molecule, the Ki in experiment [7] and in [8] was more than 100 µM throughout.

As for `CCCCCCS[S+]([O-])CCCCCC` (stereo unspecified), the values for the TDI in experiment [2] and in experiment [4] were 44100 min⁻¹ M⁻¹ and 83500 min⁻¹ M⁻¹, respectively. In addition, the IC50 was 10.9 µM in [3] and 3.08 µM in [6]. Besides, the Ki in [5] worked out at 5.94 µM; in experiment [7] it was 1 µM; in experiment [8] it was 1.8 µM; in experiment [9], 10.4 µM.

As to `CC(C)CCS[S+]([O-])CCC(C)C` (stereo unspecified), the IC50 in [3] was 54.7 µM. In addition, the Ki is 18.9 µM in experiment [5], 0.36 µM in [7], 3.04 µM in experiment [8] and 3.4 µM in [9].

For `[O-][S+](Cc1ccccc1)SCc1ccccc1` (stereo unspecified), the TDI in [2] stood at 48600 min⁻¹ M⁻¹; in experiment [4], 7800 min⁻¹ M⁻¹. The molecule further came in with an IC50 in experiment [3] of 30.3 µM. Further, the Ki in experiment [5] amounted to 7.8 µM; in experiment [7], 2.31 µM; in experiment [8], 4.5 µM; in [9], 31.7 µM.
